Results published in paper PMC9401600 (Chemmedchem, 2022).

Key:
[1] = test system: Aβ deposits in CL2006 strain; experiment: Thioflavin‐S staining of Aβ aggregation; format: in vivo, Caenorhabditis elegans; conditions: head region, after 5 days of treatment, compared to the vehicle group
Experimental: The transgenic AD strain CL2006 is characterized by the expression of human Aβ1‐42 under the control of a muscle‐specific promoter, making it suitable to answer this objective in our work. As we mentioned above, UNC0638 was used as a positive control. […] After 5 days of treatment, adult CL2006 C. elegans were fixed in 4 % Paraformaldehyde/Phosphate‐buffered saline (PBS) (pH 7.5), for 24 hours at 4 °C. […] On the last day, nematodes were stained with 0.125 % Thioflavin‐S (ThS) (Sigma, CAS# 1326–12‐1) in 50 % ethanol (EtOH) for 2 min, destained in 50 % EtOH for 2 min, washed 3 times with PBS. To prepare the glass slide for microscopy, approximately 10 μL volume was transferred on a droplet of Fluoromount G (Electron Microscopy Sciences, CAT#17984‐25). Fluorescence images were acquired using a 20 Å∼ objective of a fluorescence microscope. Aβ in the head region of worms were quantified by counting the number of Th−S positive spots using ImageJ and were expressed as Aβ deposits/anterior area.

[2] = molecular target: T1, G9a (Homo sapiens, UniProt Q96KQ7); experiment: G9a Homogeneous Assay Kit (AlphaLISA) G9a inhibition; format: biochemical
T1 construct: purchased BPS Bioscience 52051
T1 sequence (Q96KQ7 1-1210): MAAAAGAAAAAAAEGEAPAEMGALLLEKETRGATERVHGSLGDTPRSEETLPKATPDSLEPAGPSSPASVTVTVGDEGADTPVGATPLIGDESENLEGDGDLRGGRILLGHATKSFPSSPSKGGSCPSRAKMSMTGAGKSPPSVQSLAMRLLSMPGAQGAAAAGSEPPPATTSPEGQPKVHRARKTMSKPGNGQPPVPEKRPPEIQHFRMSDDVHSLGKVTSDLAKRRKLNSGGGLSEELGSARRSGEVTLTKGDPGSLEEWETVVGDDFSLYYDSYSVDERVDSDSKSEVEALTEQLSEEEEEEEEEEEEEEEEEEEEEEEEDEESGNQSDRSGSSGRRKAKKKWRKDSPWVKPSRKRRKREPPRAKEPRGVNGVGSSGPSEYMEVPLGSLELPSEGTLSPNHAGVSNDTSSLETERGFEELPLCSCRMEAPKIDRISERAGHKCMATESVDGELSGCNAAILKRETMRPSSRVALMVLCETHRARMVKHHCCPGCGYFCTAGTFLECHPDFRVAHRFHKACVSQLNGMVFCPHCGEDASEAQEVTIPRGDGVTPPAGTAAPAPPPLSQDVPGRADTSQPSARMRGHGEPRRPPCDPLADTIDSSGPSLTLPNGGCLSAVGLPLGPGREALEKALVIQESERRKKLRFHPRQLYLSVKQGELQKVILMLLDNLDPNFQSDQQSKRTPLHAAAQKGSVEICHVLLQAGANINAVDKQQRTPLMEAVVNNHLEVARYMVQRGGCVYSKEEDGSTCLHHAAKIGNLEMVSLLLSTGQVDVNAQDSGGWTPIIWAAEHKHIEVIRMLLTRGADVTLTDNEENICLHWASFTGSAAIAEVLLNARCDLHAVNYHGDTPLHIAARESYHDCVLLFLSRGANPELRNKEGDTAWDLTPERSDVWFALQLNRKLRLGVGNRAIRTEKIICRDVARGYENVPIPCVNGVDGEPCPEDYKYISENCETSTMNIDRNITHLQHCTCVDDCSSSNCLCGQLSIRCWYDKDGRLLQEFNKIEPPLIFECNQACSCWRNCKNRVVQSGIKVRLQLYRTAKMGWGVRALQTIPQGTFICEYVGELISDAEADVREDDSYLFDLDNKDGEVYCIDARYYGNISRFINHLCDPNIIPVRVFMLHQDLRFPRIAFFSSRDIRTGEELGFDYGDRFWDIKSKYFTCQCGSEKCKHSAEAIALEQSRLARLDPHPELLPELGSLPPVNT
Experimental: The percentages of G9a activity for the 10 selected molecules were determined at 100 μM S‐adenosylmethionine (SAM) and peptide substrate using AlphaLISA® technology. These percentages were used to calculate the IC50.
G9a inhibitors were serially diluted between 5 nM and 0.001 nM in 100 % DMSO (Sigma, St. Louis, USA). Then, respective concentrations were subsequently diluted in MilliQ purified water to reach a final concentration ranging between 50 and 0.001 μM in 1 % DMSO in well.
Briefly, a sample containing the G9a enzyme is incubated with the biotinylated substrate plus inhibitor solution for two hours. Next, acceptor beads and primary antibody is added, followed by donor beads. Finally, the Alpha‐counts were read using an AlphaScreen microplate reader. The experiment was run per triplicate. G9aactivity(%)=(C-Cb)/(Ct-Cb)x100
Ct=The chemiluminescence reading in the absence of the compound. The data set here is defined as 100 % activity in the absence of the compound.
Cb=The chemiluminescence reading in absence of enzyme. The data set here is defined as 0 % activity in the absence of the enzyme.
C=The chemiluminescence reading in the presence of the compound.
Data analysis was conducted using GraphPad Prism ver. 9 statistical software. The statistical outliers were identified with Grubb's test and excluded from the analysis. Group comparisons were carried out with a One‐way Analysis of variance (ANOVA), followed by the Dunnett post hoc test. In some cases, comparison between groups was also performed by unpaired t‐test or One‐way ANOVA, followed by Fisher's LSD post hoc test. For the calculation of IC50, non‐linear regressions were performed. […] Values are shown as the mean ± Standard error of the mean (SEM) of at least n=3. Statistical significance was considered when p values were <0.05.

[3] = PAMPA‐BBB assay; format: in vitro ADME; conditions: pig, PAMPA; PBS:EtOH (70 : 30); values as printed in text; read-out: in vitro permeability (Pe), PAMPA‐BBB
Experimental: To evaluate the brain penetration of the different compounds, a parallel artificial membrane permeation assay for BBB was used, following the method described by Di et al..[33] The in vitro Pe of fourteen commercial drugs through lipid extract of porcine brain membrane together with the test compounds were determined. Commercial drugs and assayed compounds were tested using a mixture of PBS:EtOH (70 : 30).

[4] = molecular target: T1, G9a; set-up: method as in PMID 31141392, PMID 31276898, PMID 29890830, PMID 33661013, PMID 30753076; conditions: previously reported, dependent on the assay conditions used; cited from earlier work

COc1cc2c(NC3CCN(C(C)C)CC3)nc(C3CCCCC3)nc2cc1OCCCN1CCCC1 [UNC0638, reference compound]
reduction of Aβ deposition (Thioflavin S‐positive particles) [1]: approximately 25% | % G9a activity ([2]; 0.0001 µM, first data set of Table S2): 36.4% | % G9a activity ([2]; 0.0001 µM, second data set of Table S2): 37.2% | % G9a activity ([2]; 0.0001 µM, third data set of Table S2): 36.8% | % G9a activity ([2]; 0.001 µM, first data set of Table S2): 34.1% | % G9a activity ([2]; 0.001 µM, second data set of Table S2): 35.7% | % G9a activity ([2]; 0.001 µM, third data set of Table S2): 34.9% | % G9a activity ([2]; 0.01 µM, first data set of Table S2): 17.0% | % G9a activity ([2]; 0.01 µM, second data set of Table S2): 15.3% | % G9a activity ([2]; 0.01 µM, third data set of Table S2): 16.1% | % G9a activity ([2]; 0.1 µM, first data set of Table S2): 7.9% | % G9a activity ([2]; 0.1 µM, second data set of Table S2): 6.8% | % G9a activity ([2]; 0.1 µM, third data set of Table S2): 7.0% | % G9a activity ([2]; 1 µM, first data set of Table S2): 5.2% | % G9a activity ([2]; 1 µM, second data set of Table S2): 5.8% | % G9a activity ([2]; 1 µM, third data set of Table S2): 6.3% | % G9a activity ([2]; 10 µM, first data set of Table S2): 1.9% | % G9a activity ([2]; 10 µM, second data set of Table S2): 2.6% | % G9a activity ([2]; 10 µM, third data set of Table S2): 1.9% | % G9a activity ([2]; 50 µM, first data set of Table S2): 0.1% | % G9a activity ([2]; 50 µM, second data set of Table S2): 0.7% | % G9a activity ([2]; 50 µM, third data set of Table S2): 0.3% | Papp [3]: 6.2 ×10⁻⁶ cm/s

COc1cc2c(cc1OC)-c1c(C)c3cc(OC)c(OC)cc3c[n+]1CC2 [Compound 8, pseudodehydrocorydaline]
IC50 [4]: 16.3 µM

O=C1c2ccccc2-c2onc3c(N4CCCC4)cc(NCCN4CCCC4)c1c23 [Compound 7]
IC50 [4]: 1.2 µM
